Data taken from EP0368158A1, “Imidazo pyridines” (Byk Gulden Lomberg Chemische Fabrik GmbH, priority 1988, dated 1990).

Test system: durch Pentagastrin stimulierte Säuresekretion des perfundierten Rattenmagens
Experiment: Inhibition of pentagastrin-stimulated acid secretion in the perfused rat stomach in vivo
Parameters: species or system Ratte
Description: Prüfung der sekretionshemmenden Wirkung am perfundierten Rattenmagen
In der folgenden Tabelle 2 ist der Einfluß der erfindungsgemäßen Verbindungen nach intravenöser Gabe auf die durch Pentagastrin stimulierte Säuresekretion des perfundierten Rattenmagens in vivo dargestellt.
Narkotisierten Ratten (CD-Ratte, weiblich, 200-250 g; 1,5 g/kg i.m. Urethan) wurde nach Tracheotomie das Abdomen durch einen medianen Oberbauchschnitt er-öffnet und ein PVC-Katheter transoral im Ösophagus sowie ein weiterer via Pylorus derart fixiert, daß die Schlauchenden eben noch in das Magenlumen hineinragten. Der aus dem Pylorus führende Katheter führte über eine seitliche Öffnung in der rechten Bauchwand nach außen.
Nach gründlicher Spülung (ca.50-100 ml) wurde der Magen mit 37 °C warmer physiologischer NaCl-Lösung kontinuierlich durchströmt (0,5 ml/min, pH 6,8-6,9; Braun-Unita I). In dem jeweils im 15 min-Abstand aufgefangenen (25 ml Meßzylinder) Effluat wurde der pH-Wert (pH-Meter 632, Glaselektrode EA 147; ⌀ = 5 mm, Metrohm) sowie durch Titration mit einer frisch zubereiteten 0,01 N NaOH bis pH 7 (Dosimat 655 Metrohm) die sezernierte HCl bestimmt.
Die Stimulation der Magensekretion erfolgte durch Dauerinfusion von 1µg/kg (=1,65 ml/h) i.v. Pentagastrin (V. fem. sin.) ca 30 min nach Operationsende (d.h. nach Bestimmung von 2 Vorfraktionen). […]

Row | SMILES | ED50 (Rattus norvegicus, iv; i.v.; interpolated dose that causes a maximal inhibition of HCl secretion by 50 %; head says 'ca.'; read-out: Maximale Hemmung der Säureausscheidung ca. ED50 +) (µmol/kg) i.v.) [µmol/kg] | Maximale Hemmung der Säureausscheidung ca. ED50 +) (µmol/kg) i.v. (i.v., interpolated dose that causes a maximal inhibition of HCl secretion by 50 %, head says 'ca.')
1 | COc1ccc(C(=O)O[C@@H]2Cc3ccccc3[C@H]2Oc2cccn3c(CO)c(C)nc23)cc1 (relative stereo) [Beispiel 2, 3-Hydroxymethyl-8-[trans-2-(4-methoxybenzoyloxy)-2,3-dihydro-1-indenyloxy]-2-methyl-imidazo[1,2-a]pyridin] | ~1.1 | 
2 | COCC(=O)O[C@@H]1Cc2cc(F)ccc2[C@H]1Oc1cccn2c(CO)c(C)nc12 (relative stereo) [Beispiel 5, 8-(5-Fluor-trans-2-methoxyacetoxy-2,3-dihydro-1-indenyloxy)-3-hydroxymethyl-2-methyl-imidazo[1,2-a]pyridin] |  | ~0,8 µmol/kg
